Patent US10583137B2, “Triazole DAGLα inhibitors” (THE SCRIPPS RESEARCH INSTITUTE, priority 2015, dated 2020)

What was measured:
DAGLα (hDAGLα-FLAG) = DAGLα (hDAGLα-FLAG) (Homo sapiens (Human), UniProt Q9Y4D2); experiment: competitive ABPP, membrane proteome of transfected HEK293T cells; format: biochemical; details: for inhibition at 0.0032 µM: 3.2 nM, read-out: DAGLα % inh. 3.2 nM; for IC50: read-out: DAGLα IC50
Summary of the method: (§1)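 HEK293T membrane proteome (1 mg/ml) expressing FLAG-tagged human DAGLα or DAGLβ, treated 30 min at room temperature with compound, then 30 min with HT-01 or FP-Rh probe (1 μM). Bands separated by SDS-PAGE were normalized to DMSO for IC50 by variable-slope fit.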

DAGLβ (hDAGLβ-FLAG) = DAGLβ (hDAGLβ-FLAG) (Homo sapiens (Human), UniProt Q8NCG7); experiment: as above; format: biochemical; details: for inhibition at 0.0032 µM: read-out: DAGLβ % inh. 3.2 nM; for IC50: read-out: DAGLβ IC50
Sequence of DAGLβ (hDAGLβ-FLAG) (Q8NCG7 whole entry): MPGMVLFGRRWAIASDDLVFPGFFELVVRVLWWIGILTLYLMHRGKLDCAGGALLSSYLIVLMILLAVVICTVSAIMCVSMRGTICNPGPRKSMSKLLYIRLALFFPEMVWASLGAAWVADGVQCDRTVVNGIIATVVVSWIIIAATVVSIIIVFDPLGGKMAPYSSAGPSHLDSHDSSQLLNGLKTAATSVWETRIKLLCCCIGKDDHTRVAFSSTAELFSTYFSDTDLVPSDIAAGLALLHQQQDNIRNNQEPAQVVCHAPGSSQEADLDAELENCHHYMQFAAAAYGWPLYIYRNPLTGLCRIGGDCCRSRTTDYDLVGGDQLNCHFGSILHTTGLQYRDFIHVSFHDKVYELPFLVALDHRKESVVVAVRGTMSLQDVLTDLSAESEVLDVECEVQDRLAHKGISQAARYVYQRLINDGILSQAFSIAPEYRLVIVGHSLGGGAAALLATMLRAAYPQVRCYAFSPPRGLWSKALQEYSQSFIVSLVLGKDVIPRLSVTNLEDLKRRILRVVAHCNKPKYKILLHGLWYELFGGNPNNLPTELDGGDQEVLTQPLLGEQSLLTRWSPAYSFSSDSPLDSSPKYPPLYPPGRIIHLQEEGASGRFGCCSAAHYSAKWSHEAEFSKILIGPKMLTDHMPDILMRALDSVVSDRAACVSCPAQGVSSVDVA
Summary of the method: as §1

Sequence of DAGLα (hDAGLα-FLAG) (Q9Y4D2 whole entry): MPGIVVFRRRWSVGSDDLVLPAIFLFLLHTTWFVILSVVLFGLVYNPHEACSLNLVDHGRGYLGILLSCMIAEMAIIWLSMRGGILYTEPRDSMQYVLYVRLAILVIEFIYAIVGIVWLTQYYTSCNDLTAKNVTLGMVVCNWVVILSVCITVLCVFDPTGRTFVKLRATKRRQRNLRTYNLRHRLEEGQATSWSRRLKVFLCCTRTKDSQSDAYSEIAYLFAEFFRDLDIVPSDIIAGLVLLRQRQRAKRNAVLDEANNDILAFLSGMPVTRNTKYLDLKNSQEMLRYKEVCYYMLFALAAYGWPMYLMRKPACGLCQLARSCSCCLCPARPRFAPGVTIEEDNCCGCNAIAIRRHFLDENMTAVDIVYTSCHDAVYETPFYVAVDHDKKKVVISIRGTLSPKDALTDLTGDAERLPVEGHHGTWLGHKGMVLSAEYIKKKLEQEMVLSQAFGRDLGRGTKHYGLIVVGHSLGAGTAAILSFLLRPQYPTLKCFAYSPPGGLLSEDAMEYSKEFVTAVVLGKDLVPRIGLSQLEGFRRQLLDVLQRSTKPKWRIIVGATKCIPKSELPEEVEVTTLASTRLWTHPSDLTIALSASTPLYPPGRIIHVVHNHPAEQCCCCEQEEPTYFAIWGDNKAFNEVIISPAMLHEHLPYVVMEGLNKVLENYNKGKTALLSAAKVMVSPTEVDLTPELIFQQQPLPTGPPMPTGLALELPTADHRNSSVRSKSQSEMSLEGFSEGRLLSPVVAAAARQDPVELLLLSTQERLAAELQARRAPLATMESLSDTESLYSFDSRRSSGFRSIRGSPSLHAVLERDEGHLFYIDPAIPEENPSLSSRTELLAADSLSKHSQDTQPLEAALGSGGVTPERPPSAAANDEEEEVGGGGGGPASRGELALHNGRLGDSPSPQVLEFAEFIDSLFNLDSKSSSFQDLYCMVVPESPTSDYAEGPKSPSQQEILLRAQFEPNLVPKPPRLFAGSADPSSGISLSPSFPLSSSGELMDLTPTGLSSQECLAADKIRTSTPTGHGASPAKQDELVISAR

| inhibition at 0.0032 µM (DAGLα (hDAGLα-FLAG)) | inhibition at 0.0032 µM (DAGLβ (hDAGLβ-FLAG)) | IC50 (DAGLα (hDAGLα-FLAG)) | IC50 (DAGLβ (hDAGLβ-FLAG)) | Structure (SMILES) |
| --- | --- | --- | --- | --- |
| 0 to 25% | 0 to 25% | – | – | O=C(N1C[C@H](O)C=C[C@@H]1Cc1ccccc1)n1cc(-c2ccc(OC(F)(F)F)cc2)nn1 [Compound 112, ((3R,6S)-6-benzyl-3-hydroxy-3,6-dihydropyridin-1(2H)-yl)(4-(4-(trifluoromethoxy)phenyl)-1H-1,2,3-triazol-1-yl)methanone] |
| 0 to 25% | 0 to 25% | – | – | O=C(N1C[C@H](O)C=C[C@@H]1Cc1ccccc1)n1ncc(-c2ccc(OC(F)(F)F)cc2)n1 [Compound 113, ((3R,6S)-6-benzyl-3-hydroxy-3,6-dihydropyridin-1(2H)-yl)(4-(4-(trifluoromethoxy)phenyl)-2H-1,2,3-triazol-2-yl)methanone] |
| 0 to 25% | 0 to 25% | – | – | O=C(N1C[C@@H](O)C=C[C@@H]1Cc1ccccc1)n1cc(-c2ccc(OC(F)(F)F)cc2)nn1 [Compound 114, ((3S,6S)-6-benzyl-3-hydroxy-3,6-dihydropyridin-1(2H)-yl)(4-(4-(trifluoromethoxy)phenyl)-1H-1,2,3-triazol-1-yl)methanone] |
| 0 to 25% | 0 to 25% | – | – | O=C(N1C[C@@H](O)C=C[C@@H]1Cc1ccccc1)n1ncc(-c2ccc(OC(F)(F)F)cc2)n1 [Compound 115, ((3S,6S)-6-benzyl-3-hydroxy-3,6-dihydropyridin-1(2H)-yl)(4-(4-(trifluoromethoxy)phenyl)-2H-1,2,3-triazol-1-yl)methanone] |
| 25 to 50% | 0 to 25% | – | – | CO[C@@H]1CC[C@H](Cc2ccccc2)N(C(=O)n2cc(-c3ccc(OC(F)(F)F)cc3)nn2)C1 [Compound 116, ((2R,5R)-2-benzyl-5-methoxypiperidin-1-yl)(4-(4-(trifluoromethoxy)phenyl)-1H-1,2,3-triazol-1-yl)methanone] |
| 0 to 25% | 0 to 25% | – | – | CO[C@@H]1CC[C@H](Cc2ccccc2)N(C(=O)n2ncc(-c3ccc(OC(F)(F)F)cc3)n2)C1 [Compound 117, ((2R,5R)-2-benzyl-5-methoxypiperidin-1-yl)(4-(4-(trifluoromethoxy)phenyl)-2H-1,2,3-triazol-1-yl)methanone] |
| 25 to 50% | 0 to 25% | – | – | CO[C@H]1CC[C@H](Cc2ccccc2)N(C(=O)n2cc(-c3ccc(OC(F)(F)F)cc3)nn2)C1 [Compound 118, ((2R,5S)-2-benzyl-5-methoxypiperidin-1-yl)(4-(4-(trifluoromethoxy)phenyl)-1H-1,2,3-triazol-1-yl)methanone] |
| 0 to 25% | 0 to 25% | – | – | CO[C@H]1CC[C@H](Cc2ccccc2)N(C(=O)n2ncc(-c3ccc(OC(F)(F)F)cc3)n2)C1 [Compound 119] |
| ≥ 75% | 25 to 50% | – | – | O=C(N1C[C@H](OCC2CC2)CC[C@@H]1Cc1ccccc1)n1cc(-c2ccc(OC(F)(F)F)cc2)nn1 [Compound 120, ((2R,5R)-2-benzyl-5-(cyclopropylmethoxy)piperidin-1-yl)(4-(4-(trifluoromethoxy)phenyl)-1H-1,2,3-triazol-1-yl)methanone] |
| 0 to 25% | 0 to 25% | – | – | O=C(N1C[C@H](OCC2CC2)CC[C@@H]1Cc1ccccc1)n1ncc(-c2ccc(OC(F)(F)F)cc2)n1 [Compound 121] |
| – | – | ≤ 400 nM | ≤ 400 nM | CC(C)(C)CN(CCc1ccccc1)C(=O)n1cc(-c2ccc(OC(F)(F)F)cc2)nn1 [Compound 123, N-neopentyl-N-phenethyl-4-(4-(trifluoromethoxy)phenyl)-1H-1,2,3-triazole-1-carboxamide] |
| – | – | ≤ 400 nM | ≤ 400 nM | O=C(N(CCc1ccccc1)C1CCC1)n1cc(-c2ccc(OC(F)(F)F)cc2)nn1 [Compound 124, N-cyclobutyl-N-phenethyl-4-(4-(trifluoromethoxy)phenyl)-1H-1,2,3-triazole-1-carboxamide] |
| – | – | ≤ 400 nM | ≤ 400 nM | O=C(N(CCc1ccccc1)C1CC1)n1cc(-c2ccc(OC(F)(F)F)cc2)nn1 [Compound 125, N-cyclopropyl-N-phenethyl-4-(4-(trifluoromethoxy)phenyl)-1H-1,2,3-triazole-1-carboxamide] |
| – | – | 2000 to 10000 nM | ≤ 400 nM | CC(C)(C)CN(CCc1ccccc1)C(=O)n1ncc(-c2ccc(OC(F)(F)F)cc2)n1 [Compound 127, N-neopentyl-N-phenethyl-4-(4-(trifluoromethoxy)phenyl)-2H-1,2,3-triazole-2-carboxamide] |
| – | – | 2000 to 10000 nM | 400 to 2000 nM | O=C(N(CCc1ccccc1)C1CCC1)n1ncc(-c2ccc(OC(F)(F)F)cc2)n1 [Compound 128, N-cyclobutyl-N-phenethyl-4-(4-(trifluoromethoxy)phenyl)-2H-1,2,3-triazole-2-carboxamide] |
| – | – | 2000 to 10000 nM | 400 to 2000 nM | O=C(N(CCc1ccccc1)C1CC1)n1ncc(-c2ccc(OC(F)(F)F)cc2)n1 [Compound 129, N-cyclopropyl-N-phenethyl-4-(4-(trifluoromethoxy)phenyl)-2H-1,2,3-triazole-2-carboxamide] |
| – | – | ≤ 400 nM | ≤ 400 nM | O=C(N(CCc1ccccc1)CC1CC1)n1cc(-c2ccc(OC(F)(F)F)cc2)nn1 [Compound 130, N-(cyclopropylmethyl)-N-phenethyl-4-(4-(trifluoromethoxy)phenyl)-1H-1,2,3-triazole-1-carboxamide] |
| – | – | 2000 to 10000 nM | 400 to 2000 nM | O=C(N(CCc1ccccc1)CC1CC1)n1ncc(-c2ccc(OC(F)(F)F)cc2)n1 [Compound 131, N-(cyclopropylmethyl)-N-phenethyl-4-(4-(trifluoromethoxy)phenyl)-2H-1,2,3-triazole-1-carboxamide] |
| – | – | ≤ 400 nM | ≤ 400 nM | CC(C)(C)CN(CCc1ccncc1)C(=O)n1cc(-c2ccc(OC(F)(F)F)cc2)nn1 [Compound 132, N-neopentyl-N-(2-(pyridin-4-yl)ethyl)-4-(4-(trifluoromethoxy)phenyl)-1H-1,2,3-triazole-1-carboxamide] |
| – | – | 2000 to 10000 nM | 400 to 2000 nM | CC(C)(C)CN(CCc1ccncc1)C(=O)n1ncc(-c2ccc(OC(F)(F)F)cc2)n1 [Compound 133, N-neopentyl-N-(2-(pyridin-4-yl)ethyl)-4-(4-(trifluoromethoxy)phenyl)-2H-1,2,3-triazole-1-carboxamide] |
| – | – | ≤ 400 nM | ≤ 400 nM | CC(C)(C)CN(CCc1cccnc1)C(=O)n1cc(-c2ccc(OC(F)(F)F)cc2)nn1 [Compound 134, N-neopentyl-N-(2-(pyridin-3-yl)ethyl)-4-(4-(trifluoromethoxy)phenyl)-1H-1,2,3-triazole-1-carboxamide] |
| – | – | 400 to 2000 nM | 2000 to 10000 nM | CC(C)(C)CN(CCc1cccnc1)C(=O)n1ncc(-c2ccc(OC(F)(F)F)cc2)n1 [Compound 135, N-neopentyl-N-(2-(pyridin-3-yl)ethyl)-4-(4-(trifluoromethoxy)phenyl)-2H-1,2,3-triazole-1-carboxamide] |
| – | – | ≤ 400 nM | ≤ 400 nM | CCC(CC)CN(CCc1cccnc1)C(=O)n1cc(-c2ccc(OC(F)(F)F)cc2)nn1 [Compound 136, N-(2-ethylbutyl)-N-(2-(pyridin-3-yl)ethyl)-4-(4-(trifluoromethoxy)phenyl)-1H-1,2,3-triazole-1-carboxamide] |
| – | – | 400 to 2000 nM | 400 to 2000 nM | CCC(CC)CN(CCc1cccnc1)C(=O)n1ncc(-c2ccc(OC(F)(F)F)cc2)n1 [Compound 137] |
